PubChem BioAssay AID180 (DTP/NCI, 2004)
Several values for one entry are separate records, joined by “and”; a condition that tells them apart may be missing. Equal values may be shown once.

Test system: BDF1 mice, Adenocarcinoma 755 s.c., tumor weight T/C
Assay: NCI In Vivo Anticancer Drug Screen. Data for tumor model Adenocarcinoma 755 (subcutaneous) in B6D2F1 (BDF1) mice
Conditions: endpoint: mean tumor weight, higher = larger tumour
How it was run: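 Transplantable tumor implanted; mice dosed with compound or vehicle; survival or tumor size recorded; ratio of treated to vehicle control reported.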

[1] = dose: 5.0 mg/kg/injection, schedule: Q01DX011 (ip), vehicle: carboxymethylcellulose (CMC)
[2] = dose: 25.0 mg/kg/injection, schedule: Q01DX011 (ip), vehicle: carboxymethylcellulose (CMC)
[3] = dose: 50.0 mg/kg/injection, schedule: Q01DX011 (ip), vehicle: carboxymethylcellulose (CMC)
[4] = dose: 100.0 mg/kg/injection, schedule: Q01DX011 (ip), vehicle: carboxymethylcellulose (CMC)
[5] = dose: 12.5 mg/kg/injection, schedule: Q01DX011 (ip), vehicle: carboxymethylcellulose (CMC)
[6] = dose: 1.0 mg/kg/injection, schedule: Q01DX011 (ip), vehicle: carboxymethylcellulose (CMC)
[7] = dose: 25.0 mg/kg/injection, schedule: Q01DX011 (ip), vehicle: other
[8] = dose: 100.0 mg/kg/injection, schedule: Q01DX011 (ip), vehicle: other

Q: Which T/C (dose: 12.5 mg/kg/injection, schedule: Q01DX011 (ip), vehicle: methylcellulose (MC)) does the source give for `O=C(O)CNc1ncnc2[nH]ncc12` here?
A: The T/C was 65 % of control.

Q: And the T/C (dose: 25.0 mg/kg/injection, schedule: Q01DX011 (ip), vehicle: methylcellulose (MC))?
A: Its T/C is 82 % of control.

Q: What about the T/C (dose: 50.0 mg/kg/injection, schedule: Q01DX011 (ip), vehicle: methylcellulose (MC)) of the same molecule?
A: The T/C was 36 % of control.

Q: What about the T/C (dose: 100.0 mg/kg/injection, schedule: Q01DX011 (ip), vehicle: methylcellulose (MC)) of the same molecule?
A: The T/C was 2 % of control and 7 % of control.

Q: How did the T/C (dose: 15.0 mg/kg/injection, schedule: Q01DX011 (ip), vehicle: saline) turn out when `COC(=O)c1cc(=O)[nH]c(N)n1` was run?
A: The T/C was 101 % of control.

Q: What about the T/C (dose: 31.0 mg/kg/injection, schedule: Q01DX011 (ip), vehicle: saline) of the same molecule?
A: The T/C was 150 % of control.

Q: And the T/C (dose: 62.0 mg/kg/injection, schedule: Q01DX011 (ip), vehicle: saline)?
A: Its T/C is 97 % of control.

Q: And the T/C (dose: 125.0 mg/kg/injection, schedule: Q01DX011 (ip), vehicle: saline)?
A: The T/C was 81 % of control.

Q: What about the T/C (dose: 250.0 mg/kg/injection, schedule: Q01DX011 (ip), vehicle: saline) of the same molecule?
A: The T/C was 113 % of control.

Q: How did the T/C [1] turn out when `C#CCn1cnc2c(Cl)ncnc21` was run?
A: Its T/C is 61 % of control.

Q: What about the T/C (dose: 15.0 mg/kg/injection, schedule: Q01DX011 (ip), vehicle: carboxymethylcellulose (CMC)) of the same molecule?
A: Its T/C is 48 % of control.

Q: And the T/C [2]?
A: Its T/C is 13 % of control.

Q: And the T/C (dose: 35.0 mg/kg/injection, schedule: Q01DX011 (ip), vehicle: carboxymethylcellulose (CMC))?
A: The T/C was 14 % of control.

Q: And the T/C [3]?
A: Its T/C is 8 % of control.

Q: What about the T/C [4] of the same molecule?
A: The T/C was 3 % of control.

Q: With `C=CC(=O)NCNC(=O)CCBr` as the molecule, how does the T/C [5] read?
A: Its T/C is 62 % of control.

Q: What about the T/C [2] of the same molecule?
A: Its T/C is 34 % of control.

Q: And the T/C [3]?
A: The T/C was 1 % of control.

Q: For `COc1ncnc2nc[nH]c12`, which T/C (dose: 62.0 mg/kg/injection, schedule: Q01DX011 (ip), vehicle: other) is on record?
A: Its T/C is 107 % of control.

Q: What about the T/C (dose: 125.0 mg/kg/injection, schedule: Q01DX011 (ip), vehicle: other) of the same molecule?
A: Its T/C is 90 % of control.

Q: And the T/C (dose: 250.0 mg/kg/injection, schedule: Q01DX011 (ip), vehicle: other)?
A: The T/C was 44 % of control.

Q: Which T/C (dose: 31.0 mg/kg/injection, schedule: Q01DX011 (ip), vehicle: methylcellulose (MC)) does the source give for `CSc1ncc(Br)c(SC)n1` here?
A: Its T/C is 102 % of control.

Q: What about the T/C (dose: 62.0 mg/kg/injection, schedule: Q01DX011 (ip), vehicle: methylcellulose (MC)) of the same molecule?
A: Its T/C is 93 % of control.

Q: Which results are given for `COc1cc(N=Nc2cccc(S(=O)(=O)O)c2)ccc1NC(=O)c1ccc(C(=O)Nc2ccc(N=Nc3cccc(S(=O)(=O)O)c3)cc2OC)cc1`?
A: T/C (dose: 30.0 mg/kg/injection, schedule: Q01DX011 (ip), vehicle: carboxymethylcellulose (CMC)): 102 % of control; T/C (dose: 60.0 mg/kg/injection, schedule: Q01DX011 (ip), vehicle: carboxymethylcellulose (CMC)): 105 % of control; T/C (dose: 120.0 mg/kg/injection, schedule: Q01DX011 (ip), vehicle: carboxymethylcellulose (CMC)): 82 % of control; T/C (dose: 240.0 mg/kg/injection, schedule: Q01DX011 (ip), vehicle: carboxymethylcellulose (CMC)): 57 % of control

Q: What does the source list for `C[C@]1(O)CC[C@H]2[C@@H]3CC[C@@H]4CC(=O)CC[C@]4(C)[C@@]3(F)C(=O)C[C@@]21C`?
A: T/C (dose: 200.0 mg/kg/injection, schedule: Q01DX011 (sc), vehicle: steriod suspending solution): 72 % of control; T/C (dose: 400.0 mg/kg/injection, schedule: Q01DX011 (sc), vehicle: steriod suspending solution): 117 % of control

Q: Which T/C (dose: 27.5 mg/kg/injection, schedule: Q01DX011 (ip), vehicle: carboxymethylcellulose (CMC)) does the source give for `COc1cc2c(cc1I)-c1c(cc(OC)c(OC)c1OC)CC[C@@H]2NC(C)=O` here?
A: Its T/C is 98 % of control.

Q: What about the T/C (dose: 27.5 mg/kg/injection, schedule: Q01DX011 (ip), vehicle: saline) of the same molecule?
A: Its T/C is 106 % of control.

Q: And the T/C (dose: 55.0 mg/kg/injection, schedule: Q01DX011 (ip), vehicle: carboxymethylcellulose (CMC))?
A: Its T/C is 81 % of control.

Q: And the T/C (dose: 55.0 mg/kg/injection, schedule: Q01DX011 (ip), vehicle: saline)?
A: The T/C was 86 % of control.

Q: And the T/C (dose: 110.0 mg/kg/injection, schedule: Q01DX011 (ip), vehicle: carboxymethylcellulose (CMC))?
A: Its T/C is 40 % of control.

Q: What about the T/C (dose: 110.0 mg/kg/injection, schedule: Q01DX011 (ip), vehicle: saline) of the same molecule?
A: Its T/C is 58 % of control.

Q: What about the T/C (dose: 220.0 mg/kg/injection, schedule: Q01DX011 (ip), vehicle: saline) of the same molecule?
A: Its T/C is 16 % of control.

Q: How did the T/C (dose: 8.63 mg/kg/injection, schedule: Q01DX011 (ip), vehicle: carboxymethylcellulose (CMC)) turn out when `CCNc1nncs1` was run?
A: The T/C was 65 % of control.

Q: And the T/C (dose: 14.22 mg/kg/injection, schedule: Q01DX011 (ip), vehicle: carboxymethylcellulose (CMC))?
A: Its T/C is 73 % of control.

Q: And the T/C (dose: 17.25 mg/kg/injection, schedule: Q01DX011 (ip), vehicle: carboxymethylcellulose (CMC))?
A: Its T/C is 77 % of control.

Q: And the T/C (dose: 28.45 mg/kg/injection, schedule: Q01DX011 (ip), vehicle: carboxymethylcellulose (CMC))?
A: The T/C was 84 % of control.

Q: What about the T/C (dose: 31.25 mg/kg/injection, schedule: Q01DX011 (ip), vehicle: methylcellulose (MC)) of the same molecule?
A: The T/C was 62 % of control.

Q: And the T/C (dose: 34.5 mg/kg/injection, schedule: Q01DX011 (ip), vehicle: carboxymethylcellulose (CMC))?
A: The T/C was 101 % of control.

Q: And the T/C (dose: 56.9 mg/kg/injection, schedule: Q01DX011 (ip), vehicle: carboxymethylcellulose (CMC))?
A: The T/C was 89 % of control and 80 % of control and 84 % of control.

Q: What about the T/C (dose: 62.5 mg/kg/injection, schedule: Q01DX011 (ip), vehicle: methylcellulose (MC)) of the same molecule?
A: Its T/C is 49 % of control.

Q: And the T/C (dose: 69.0 mg/kg/injection, schedule: Q01DX011 (ip), vehicle: carboxymethylcellulose (CMC))?
A: The T/C was 103 % of control.

Q: What about the T/C (dose: 75.8 mg/kg/injection, schedule: Q01DX011 (ip), vehicle: carboxymethylcellulose (CMC)) of the same molecule?
A: The T/C was 58 % of control and 75 % of control.

Q: What about the T/C (dose: 125.0 mg/kg/injection, schedule: Q01DX011 (ip), vehicle: methylcellulose (MC)) of the same molecule?
A: Its T/C is 6 % of control.

Q: For `CCCOP(=S)(N1CC1C)N1CC1(C)C` (configuration not stated), which T/C (dose: 0.5 mg/kg/injection, schedule: Q01DX011 (ip), vehicle: carboxymethylcellulose (CMC)) is on record?
A: The T/C was 68 % of control.

Q: And the T/C [6]?
A: The T/C was 104 % of control.

Q: And the T/C (dose: 12.0 mg/kg/injection, schedule: Q01DX011 (ip), vehicle: carboxymethylcellulose (CMC))?
A: Its T/C is 79 % of control.

Q: And the T/C (dose: 24.0 mg/kg/injection, schedule: Q01DX011 (ip), vehicle: carboxymethylcellulose (CMC))?
A: Its T/C is 61 % of control.

Q: Which results are given for `CC1=C(O)c2ccccc2C(=O)C1=O`?
A: T/C [7]: 106 % of control; T/C (dose: 50.0 mg/kg/injection, schedule: Q01DX011 (ip), vehicle: other): 84 % of control; T/C [8]: 96 % of control

Q: What does the source list for `CC/C(=C(\CC)c1ccc(OC)cc1)c1ccc(O)cc1`?
A: T/C (dose: 15.0 mg/kg/injection, schedule: Q01DX011 (sc), vehicle: steriod suspending solution): 68 % of control; T/C (dose: 30.0 mg/kg/injection, schedule: Q01DX011 (sc), vehicle: steriod suspending solution): 69 % of control; T/C (dose: 60.0 mg/kg/injection, schedule: Q01DX011 (sc), vehicle: steriod suspending solution): 40 % of control; T/C (dose: 120.0 mg/kg/injection, schedule: Q01DX011 (sc), vehicle: other): 37 % of control and 42 % of control; T/C (dose: 120.0 mg/kg/injection, schedule: Q01DX011 (sc), vehicle: steriod suspending solution): 26 % of control

Q: Which results are given for `COCCCNS(=O)(=O)c1ncnc2nc[nH]c12`?
A: T/C [6]: 79 % of control; T/C (dose: 1.0 mg/kg/injection, schedule: Q01DX011 (ip), vehicle: saline): 74 % of control; T/C (dose: 2.5 mg/kg/injection, schedule: Q01DX011 (ip), vehicle: saline): 96 % of control; T/C (dose: 3.0 mg/kg/injection, schedule: Q01DX011 (ip), vehicle: carboxymethylcellulose (CMC)): 63 % of control and 81 % of control; T/C (dose: 3.0 mg/kg/injection, schedule: Q01DX011 (ip), vehicle: saline): 163 % of control; T/C [1]: 86 % of control; T/C (dose: 6.0 mg/kg/injection, schedule: Q01DX011 (ip), vehicle: other): 105 % of control; T/C (dose: 10.0 mg/kg/injection, schedule: Q01DX011 (ip), vehicle: carboxymethylcellulose (CMC)): 80 % of control; T/C (dose: 12.0 mg/kg/injection, schedule: Q01DX011 (ip), vehicle: other): 43 % of control; T/C [5]: 8 % of control (2×) and 30 % of control; T/C (dose: 12.5 mg/kg/injection, schedule: Q01DX011 (ip), vehicle: saline): 24 % of control; T/C [7]: 37 % of control; T/C (dose: 25.0 mg/kg/injection, schedule: Q01DX011 (ip), vehicle: saline): 5 % of control and 9 % of control; T/C [3]: 3 % of control and 4 % of control; T/C (dose: 50.0 mg/kg/injection, schedule: Q01DX011 (ip), vehicle: saline): 5 % of control; T/C [4]: 3 % of control; T/C [8]: 7 % of control; T/C (dose: 200.0 mg/kg/injection, schedule: Q01DX011 (ip), vehicle: saline): 1 % of control
